Measurements taken from patent US20110165085A1, “TUMOR SELECTIVE FLUORESCENT STAINING AGENT” (THE UNIVERSITY OF TOKYO, priority 2006, published 2011).

Assays:
[1] = system: RGK1 (transformed, cancer model) and RGM1 (normal gastric mucosal epithelium) cells; test: Flow cytometry screening: average fluorescence intensity ratio of RGK1 relative to RGM1; type: cell-based, rat
Description: Screening for candidate compounds was performed in a cultured cell system. As cultured cells, rat normal gastric mucosal epithelium derived cells, RGM1, and transformed cells thereof, RGK1, were used as model cells of normal cell and cancer cell, respectively. For the culture of RGM1 and RGK1, a DMEM/HAM F12 (1:1) medium (10% FBS, 0.1% penicillin streptomycin) was used. Each of the compounds shown below (concentration: 0-1 μM) was loaded on these cells for 10 minutes, then the medium was replaced with the medium not containing the compounds, and after a given time, average fluorescence intensity was determined by flow cytometry. Effectiveness of each compound was evaluated on the basis of average of fluorescence intensity ratio of RGK1 relative to RGM1.
Various ester derivatives converted from acetyl ester of FDA shown in Table I were compared by flow cytometry in the same manner as that used in Example 1.

[2] = system: intracellular esterase (RGK1 and RGM1 cell lysates); test: Hydrolytic enzyme activity for FDA in the two types of cell lysates; type: biochemical, rat
Source text: FDA is an esterase-sensitive fluorescent probe, and it enters into a cell by diffusion, then is hydrolyzed by an intracellular esterase to produce a fluorescent fluorescein, and gradually leaks out of the cell. Since the fluorescein is more hydrophilic compared with FDA, the leakage of the fluorescein out of the cell occurs much more slowly than the uptake of FDA into the cell. This process was compared for the normal cells and the cancer cells.

[3] = system: cancer cells and normal cells; test: Imaging of cancer and normal cells under a fluorescence microscope; type: cell-based, rat; conditions: fluorescence microscope IX71, excitation 470-490 nm, filter 500 nm
Description: Imaging was performed by using FDAcr under a fluorescence microscope.

[4] = system: esophagus cancer lesion; test: Fluorescence endoscopic imaging of NMBA rat esophagus cancer model; type: in vivo; conditions: endoscope (FIG. 4)
Description: By using FDAcr, imaging of an NMBA rat, an esophagus cancer model, was performed. A rat (10-week old, male) was subcutaneously injected with 1 mg of NMBA 5 times per week for the first to 5th weeks, and once per week for 6th to 15th weeks, and used for the experiment after 16th week. The rat was anesthetized by intraperitoneal administration of Nembutal (1 mL/kg body weight) and fixed on a rest in the dorsal position to maintain the airway. An endoscope was inserted into the esophagus for observation. […] In the same manner as Example 5, a fluorescent endoscopic image was obtained by using Cy-7, a cyanine near-infrared fluorescent dye.

[5] = system: colon cancer lesion; test: Fluorescence endoscopic imaging of colon cancer model rat; type: in vivo; conditions: enema 15 ml of 100 μM in PBS, 3 minutes, fiberscope (FIG. 5)
Description: By using FEAcr, imaging of a colon cancer model rat was performed. A colon cancer model rat was anesthetized with ether, and inside the colon was washed with 0.6% aqueous acetic acid. The inside of the colon was washed two to three times with PBS maintained at 37° C., and then an enema with 15 ml of 100 μM FDAcr (PBS solution) was performed from the anus and the anus was clogged to stand for 3 minutes. After 3 minutes, the inside of the colon was washed two to three times with PBS maintained at 37° C. A fiberscope (BF-3C40) was inserted in the colon to observe pathological legions.

| SMILES | average of fluorescence intensity ratio of RGK1 relative to RGM1 ([1]; compound 0-1 μM loaded 10 minutes, medium replaced, flow cytometry after a given time, among candidate compounds (FIG. 1)) | hydrolytic activity for FDA, RGK1 versus RGM1 [2] | performance for distinguishing cancer cells from normal cells (fluorescence intensity ratio) ([1]; flow cytometry as in Example 1, compared among ester derivatives of Table 1 (FIG. 2)) | fluorescence in cancer cells versus normal cells [3] | fluorescence intensity around esophagus cancer lesion versus normal tissues [4] | fluorescence at colon cancer lesion [5] |
| --- | --- | --- | --- | --- | --- | --- |
| CC(=O)Oc1ccc2c(c1)Oc1cc(OC(C)=O)ccc1C21OC(=O)c2ccccc21 [FDA, fluorescein diacetate] | highest fluorescence intensity ratio | about twice higher hydrolytic activity | – | – | – | – |
| C=CC(=O)Oc1ccc2c(c1)Oc1cc(OC(=O)C=C)ccc1C21OC(=O)c2ccccc21 [FDAcr, fluorescein diacrylate] | – | – | superior performance for distinguishing cancer cells from normal cells | Strong fluorescence was observed in the cancer cells | higher than that of normal tissues | Strong fluorescence was observed at each colon cancer lesion |
